Measurements from publication PMC8639922, “KSHV transactivator-derived small peptide traps coactivators to attenuate MYC and inhibits leukemia and lymphoma cell growth” (Communications Biology, 2021).
Square brackets hold non-standard residues; d marks the D form. Peptide text beside a SMILES is read from it. Orn = NCCC[C@H](N)C(=O)O; βAla = NCCC(=O)O

Tests used:
Assay type in all cases: cell-based, human
BC-1 = assay: Flow cytometry, cell proliferation (Ki67 staining); conditions: BC-1, 24 h
Experimental: (§1) Leukoreduction system chambers (LRS) from healthy donors were purchased from Vitalant. Peripheral blood mononuclear cells (PBMCs) were prepared by a standard Ficoll gradient method. PBMCs along with THP-1 and BCBL-1 cell lines (2 × 10^6 cells/ml, 0.2 ml 10% FBS/RPMI/DMEM per well of a 96-well plate) were treated with various doses (0–256 μM) of either VGN50 peptide or control mutant peptide for 24 h. Cell death, apoptosis, and proliferation were analyzed by flow cytometry (BD Acuri) after intracellular staining with anti-humanKi67-Alexa488 (Biolegend, 1:100) along with the isotype control antibody, annexin-V-FITC with 7-AAD staining (Biolegend) according to the manufacture’s protocol, Live/dead Fixable Red Dead Cell staining kit (Invitrogen) according to the manufacture’s protocol, or MTT assay. Peptides were commercially synthesized (GenScript) with >90% purity with TFA removal. […]
(§2) Isotype control Anti-Ki67 antibody
(§3) S-Figure 3. Flow cytometry analyses […]
(§4) Repr esent at i ve FACS pl ot s wi t h ancest r y gat i ng st r at egy of Ki 67+ popul at i on f or
(§5) BCBL-1 and BC-1 cel l s t r eat ed wi t h PBS wi t h an i sot ype cont r ol ar e shown. Mean +/-SD of
(§6) Ki 67% of t ot al BCBL-1 and BC-1 cel l s anal yzed ar e shown i n Fi g. 2e.

BCBL-1 = assay: Flow cytometry, cell proliferation (Ki67 staining); conditions: BCBL-1, 24 h
Experimental: as §1, §2, §3, §4, §5, §6

[1] = test system: MYC promoter and putative enhancer regions; assay: CUT&RUN qPCR, coactivator complex recruitment (PolII, BRD4, SMARCA4)
Excerpt: We next examined the molecular mechanism of MYC down-regulation by VGN50. We first utilized Cleavage under targets & release using nuclease (CUT&RUN)-sequencing to examine histone modifications that are known to be associated with enhancers in order to map putative MYC enhancer regions in PEL cells (Fig. 5a). Genome-wide CUT&RUN studies identified putative enhancer and promoter regulatory regions that are marked by H3K27Ac, H3K4me1, POLR2A (RNAPII), BRD4, and SMARCC1, a component of the SWI/SNF complex (Fig. 1b and 5a). The identified putative MYC enhancers were also in good agreement with previous ChIP Hi-C[53] and ChIP-seq data sets[54]. Specific primer pairs were then designed to amplify the respective enhancer regions and to examine regulation of coactivator complex recruitment by VGN50.
Fig. 5 A molecular mechanism of VGN50-mediated MYC-down-regulation. a Cleavage under targets & release using nuclease (CUT&RUN). CUT&RUN was performed with BCBL-1 and BC-1 with the indicated antibodies. Enrichment of active histone modifications, and occupancies of RNAPII and SWI/SNF components at the MYC genomic region are shown as peaks. One of the biological duplicate samples for the BCBL-1 cell line is presented. […] The MYC promoter, enhancer, and negative control regions used for qPCR analyses are indicated with shading. The positions of the MYC coding region, CASC11 coding region, and long non-coding RNA, PVT1, MIR1208 are shown in the panel. b VGN50 inhibits coactivator complex recruitment and c reduces H3K27Ac modification. qPCR is used to examine enrichment of DNA fragments in the presence of VGN50 or mutant peptide (24 μM). Peptide was applied 1 h prior to processing samples for CUT&RUN to replicate SLAM-seq experimental conditions. Non-specific IgG control was also included and enrichment with IgG control at each genomic region was set as 1 for b, and spiked-in luciferase plasmid DNA was used for additional internal control for c. d Formation of a larger protein complex with VGN50. Sucrose gradient sedimentation was used to monitor changes in protein complex formation in the presence of VGN50. The experiment flow chart is shown at the top of this panel. Fractions were collected from top (#1) to bottom (#23/24). Sample #24 without peptide is a smaller fraction of residual samples. Immunoblotting was performed on the odd number samples and the remaining fraction (#24 for no peptide sample) and probed with Flag-tagged SWI/SNF components (SMARCA4, SMARCC2, and SMARCB1). The position of each protein component based on molecular size is indicated. e KSHV K-Rta colocalizes with SWI/SNF components in reactivating BCBL-1 cells. TREx-BCBL-1 cells were triggered for reactivation by treatment with Dox and TPA for 28 h and stained with the indicated antibodies. Images were acquired with Keyence fluorescence microscopy. f A model for VGN50 molecular action. A model depicting the putative molecular action of VGN50 is presented. Coactivator complexes are dynamically assembled on enhancer and promoter regions via transcription factor binding. VGN50, an IDR fragment derived from an exceptionally potent viral transactivator, flexibly interacts with components of coactivators and traps them, thus reduces the available resources for cellular enhancers to activate MYC promoters.
CUT&RUN[72] was performed essentially by following the online protocol developed by Dr. Henikoff’s lab with a few modifications to fit our needs. Cells were washed with PBS and wash buffer [20 mM HEPES-KOH pH 7.5, 150 mM NaCl, 0.5 mM Spermidine (Sigma, S2626), and proteinase inhibitor (Roche)]. After removing the wash buffer, cells were captured on magnetic concanavalin A (ConA) beads (Polysciences, PA, USA) in the presence of CaCl2. […]

[2] = MYC region E1, peptide 24 μM 1 h, IgG set as 1, replicate 1
[3] = MYC region E1, peptide 24 μM 1 h, IgG set as 1, replicate 2
[4] = MYC region E1, peptide 24 μM 1 h, IgG set as 1, replicate 3
[5] = MYC region E2, peptide 24 μM 1 h, IgG set as 1, replicate 1
[6] = MYC region E2, peptide 24 μM 1 h, IgG set as 1, replicate 2
[7] = MYC region E2, peptide 24 μM 1 h, IgG set as 1, replicate 3
[8] = MYC region E3, peptide 24 μM 1 h, IgG set as 1, replicate 1
[9] = MYC region E3, peptide 24 μM 1 h, IgG set as 1, replicate 2
[10] = MYC region E3, peptide 24 μM 1 h, IgG set as 1, replicate 3
[11] = MYC region P1, peptide 24 μM 1 h, IgG set as 1, replicate 1
[12] = MYC region P1, peptide 24 μM 1 h, IgG set as 1, replicate 2
[13] = MYC region P1, peptide 24 μM 1 h, IgG set as 1, replicate 3
[14] = Myc Control region, peptide 24 μM 1 h, IgG set as 1, replicate 1
[15] = Myc Control region, peptide 24 μM 1 h, IgG set as 1, replicate 2
[16] = Myc Control region, peptide 24 μM 1 h, IgG set as 1, replicate 3

SMILES: CC(C)C[C@H](NC(=O)CCNC(=O)[C@H](CCCNC(=N)N)NC(=O)[C@H](CCCNC(=N)N)NC(=O)[C@H](CCCNC(=N)N)NC(=O)[C@H](CCCN)NC(=O)[C@H](CCCNC(=N)N)NC(=O)[C@H](CCCNC(=N)N)NC(=O)[C@H](CCCCN)NC(=O)[C@H](CCCCN)NC(=O)[C@H](N)CCCNC(=N)N)C(=O)N[C@@H](CO)C(=O)N[C@@H](CO)C(=O)N[C@@H](C)C(=O)N[C@@H](C)C(=O)N[C@@H](C)C(=O)NCC(=O)N[C@@H](CC(C)C)C(=O)N[C@@H](Cc1ccc(O)cc1)C(=O)N[C@@H](CCC(N)=O)C(=O)N[C@@H](CC(C)C)C(=O)N[C@@H](CC(=O)O)C(=O)N[C@H](C(=O)O)[C@@H](C)O [Mt-P] (H-[dR]KKRR[Orn]RRR[βAla]LSSAAAGLYQLDT-OH; N-terminus and C-terminus assumed)
- Ki67% (BC-1; replicate 1): 43.3912%
- Ki67% (BC-1; replicate 2): 42.2259%
- Ki67% (BC-1; replicate 3): 43.3434%
- Ki67% (BCBL-1; replicate 1): 33.8765%
- Ki67% (BCBL-1; replicate 2): 32.9445%
- Ki67% (BCBL-1; replicate 3): 29.2345%
- BRD4 enrichment, CUT&RUN qPCR [1, 2]: 3.57
- PolII enrichment, CUT&RUN qPCR [1, 2]: 2.89
- SMARCA4 enrichment, CUT&RUN qPCR [1, 2]: 1.44
- BRD4 enrichment, CUT&RUN qPCR [1, 3]: 3.47
- PolII enrichment, CUT&RUN qPCR [1, 3]: 2.18
- SMARCA4 enrichment, CUT&RUN qPCR [1, 3]: 1.11
- BRD4 enrichment, CUT&RUN qPCR [1, 4]: 3.30
- PolII enrichment, CUT&RUN qPCR [1, 4]: 2.41
- SMARCA4 enrichment, CUT&RUN qPCR [1, 4]: 1.32
- BRD4 enrichment, CUT&RUN qPCR [1, 5]: 6.92
- PolII enrichment, CUT&RUN qPCR [1, 5]: 9.68
- SMARCA4 enrichment, CUT&RUN qPCR [1, 5]: 2.57
- BRD4 enrichment, CUT&RUN qPCR [1, 6]: 6.75
- PolII enrichment, CUT&RUN qPCR [1, 6]: 10.09
- SMARCA4 enrichment, CUT&RUN qPCR [1, 6]: 2.47
- BRD4 enrichment, CUT&RUN qPCR [1, 7]: 7.28
- PolII enrichment, CUT&RUN qPCR [1, 7]: 9.27
- SMARCA4 enrichment, CUT&RUN qPCR [1, 7]: 2.05
- BRD4 enrichment, CUT&RUN qPCR [1, 8]: 7.28
- PolII enrichment, CUT&RUN qPCR [1, 8]: 10.61
- SMARCA4 enrichment, CUT&RUN qPCR [1, 8]: 2.01
- BRD4 enrichment, CUT&RUN qPCR [1, 9]: 6.68
- PolII enrichment, CUT&RUN qPCR [1, 9]: 9.91
- SMARCA4 enrichment, CUT&RUN qPCR [1, 9]: 2.39
- BRD4 enrichment, CUT&RUN qPCR [1, 10]: 7.58
- PolII enrichment, CUT&RUN qPCR [1, 10]: 10.57
- SMARCA4 enrichment, CUT&RUN qPCR [1, 10]: 1.42
- BRD4 enrichment, CUT&RUN qPCR [1, 11]: 8.00
- PolII enrichment, CUT&RUN qPCR [1, 11]: 18.06
- SMARCA4 enrichment, CUT&RUN qPCR [1, 11]: 2.48
- BRD4 enrichment, CUT&RUN qPCR [1, 12]: 8.20
- PolII enrichment, CUT&RUN qPCR [1, 12]: 18.31
- SMARCA4 enrichment, CUT&RUN qPCR [1, 12]: 2.51
- BRD4 enrichment, CUT&RUN qPCR [1, 13]: 7.99
- PolII enrichment, CUT&RUN qPCR [1, 13]: 17.86
- SMARCA4 enrichment, CUT&RUN qPCR [1, 13]: 2.36
- BRD4 enrichment, CUT&RUN qPCR [1, 14]: 2.07
- PolII enrichment, CUT&RUN qPCR [1, 14]: 2.07
- SMARCA4 enrichment, CUT&RUN qPCR [1, 14]: 1.30
- BRD4 enrichment, CUT&RUN qPCR [1, 15]: 1.88
- PolII enrichment, CUT&RUN qPCR [1, 15]: 1.88
- SMARCA4 enrichment, CUT&RUN qPCR [1, 15]: 1.17
- BRD4 enrichment, CUT&RUN qPCR [1, 16]: 1.71
- PolII enrichment, CUT&RUN qPCR [1, 16]: 1.71
- SMARCA4 enrichment, CUT&RUN qPCR [1, 16]: 1.15
